Values joined by “and” are separate entries in the source; they are usually repeats but may differ in a detail not shown here. Equal values may be shown once.

1 substance from paper PMC12867150, “A fungi-derived cyclic peptide enhances Th9-mediated antitumor immunity by targeting ZAP70 and SREBP1” (The Journal of Clinical Investigation, 2025) can be followed below.

Assay [1] concerns Il9 and Tnf mRNA in Th9 cells. The assay can be described thus: Quantitative PCR of Il9 and Tnf mRNA with fatostatin or SREBP1 overexpression (Figure 7B, 7H, 7I). In kind it is cell-based, mouse. As to the method:
For murine T cell transduction, MIGR1-based retroviral vector encoding Srebf1 was used. HEK293T cells were transfected with these constructs using Lipofectamine 3000 (Thermo Fisher Scientific) to produce viral particles. Supernatants were collected between 48 and 72 hours after transfection, filtered through a 0.45 μm membrane, and stored at –80°C. Naive murine CD4^+ T cells were activated with plate-bound anti-CD3 (2 μg/mL, clone 17A2, BioXCell) and soluble anti-CD28 (1 μg/mL, clone 37.51, BioXCell) stimulation in the presence of subset-specific polarizing cytokines and then transduced with viral supernatant supplemented with polybrene (10 μg/mL).
Total RNA was extracted from T cells using RNAex Pro Reagent (AG, catalog AG21102) following the manufacturer’s instructions. First-strand complementary DNA (cDNA) was synthesized using the Hifair III 1st Strand cDNA Synthesis SuperMix (YEASEN, catalog 11137ES10). Quantitative real-time PCR (qRT-PCR) was conducted on a QuantStudio 3 Real-Time PCR System (Thermo Fisher Scientific) using ChamQ Universal SYBR qPCR Master Mix (Vazyme, catalog Q711-02) and gene-specific primers (Tsingke Biotech).
For normalization, mouse samples were referenced to Gapdh or Actb, and human samples were normalized to GAPDH. Relative gene expression was calculated using the ΔΔCt method. Primer sequences are listed in Supplemental Table 5.

The subject of assay [2] is AKT, mTOR, and NF-κB signaling components. The assay can be described thus: Immunoblot of AKT, mTOR and NF-κB components (S7D). To be noted: result in words. In kind it is cell-based, mouse. How it is done:
Detailed lysis conditions, SDS–PAGE and transfer procedures, primary/secondary antibodies (including clones and catalog numbers), molecular weight markers, ECL detection, and ImageJ (NIH) quantification are described in Supplemental Methods.
MH9A4, Biolegend, Cat. No. 507605, PE/Cy7, clone MH9A4, Biolegend, Cat. No. […]
clone Mab11, Biolegend, Cat. No. 502908), Perforin (APC, clone dG9, Biolegend, Cat.
Flow cytometric acquisition was performed using a BD Fortessa or Cytek Aurora cytometer. Data were analyzed with FlowJo software (v10.8.1 or newer). Fluorescence compensation, isotype-matched controls, and fluorescence-minus-one (FMO) controls were applied as appropriate for multicolor panel validation.
Cells were washed twice with PBS and lysed in 1 × lysis buffer (NCM, Cat. No.
WB3100) supplemented with a protease inhibitor cocktail (Solarbio, Cat. No. P1260).
Protein lysates were separated by SDS-polyacrylamide gel electrophoresis (SDS-PA G E ; YEASEN, Cat. No. 20325ES62) and transferred to PVDF membranes for […]
Membranes were probed with the following primary antibodies: ERK1/2 (clone […]
BioLegend, Cat. No. 369502), MEK1/2 (clone L38C12, Cell Signaling Technology, Cat.
No. 4694S), phospho -MEK1/2 (clone 41G9, Cell Signaling Technology, Cat. No. […]
(Proteintech, Cat. No. 10745 -1-AP), Total Akt (Cell Signaling Technolo gy, Cat. No. […]
A general note: Immunoblotting shows a protein as a band on a membrane.

In assay [3] the test system is EpA-binding proteins in Th9 cell lysates. The assay can be described thus: EpA-biotin pulldown and LC-MS/MS (Figure 5A, S7A-B). Set-up: species or system mouse. To be noted: result in words. As to the method: Cell lysates from Th9 cells were incubated overnight at 4 °C with EpA-biotin or biotin alone (control). Streptavidin-conjugated magnetic beads were added to capture biotinylated compounds and their interacting proteins. After washing, the bead-bound proteins were resolved by SDS-PAGE and visualized by silver staining. Distinct protein bands were excised, subjected to in-gel enzymatic digestion, and analyzed via liquid chromatography–tandem mass spectrometry (LC-MS/MS) to identify putative EpA-binding proteins.

Consider anteiso-C15 Leu7 surfactin [EpA], for which the “Il9 mRNA expression (quantitative PCR)” value in assay [1] (Figure 7B, EpA (10 µM) + Fatostatin (10 µM), individual replicates, (n = 3)) was 42.4796 and 40.5146 and 54.9024. Besides, the “Il9 mRNA expression in Th9 cells” value is 17.2536 and 18.9128 and 17.6178 in assay [1] (Figure 7H, MigR1 vector, individual replicates, (n = 3)); 6.0458 and 5.242 and 5.497 in assay [1] (Figure 7H, overexpressing SREBP1, individual replicates, (n = 3)); 2.765 and 2.875 and 2.532 in assay [1] (Figure 7I, MigR1 vector, individual replicates, (n = 3)); 1.999 and 1.591 and 1.423 in assay [1] (Figure 7I, overexpressing SREBP1, individual replicates, (n = 3)). In addition, the “EpA-induced Il9 and Tnf mRNA increase upon SREBP1 overexpression” value in assay [1] (result in words) was “markedly suppressed”. Besides, the “AKT and NF-κB component phosphorylation” value in assay [2] is given as “not of AKT or NF-κB components”. Moreover, in assay [2], the “total and phosphorylated mTOR levels” value is given as “remained unchanged”. Also, the “EpA pulldown, ZAP70” value in assay [3] is “top candidate”.
